# Assay results from patent US20140315999A1, “USE OF PROLYL H[…] A RADIOPROTECTIVE DRUG FOR THE LOWER GASTROINTESTINAL TRACT” (priority 2011, published 2014).
# What was measured:
# [1] = system: mice receiving 20 Gy of abdominal radiation; experiment: Survival following whole-abdominal irradiation (Kaplan-Meier); format: in vivo; details: 20 Gy abdominal radiation, DMOG treatment vs none (FIG. 5)
# From the text: FIG. 5 depicts Kaplan-Meier survival analysis of mice following whole-abdominal irradiation (20 Gy) with and without DMOG treatment. p=0.03 (n=12).
# HIF-1 = experiment: Western blot for HIF-1 in colonic crypts after DMOG injection; format: in vivo, male C57Bl/6 mice; details: 8 mg DMOG intraperitoneally; 4-12 after DMOG administration
# Procedure: (§1) FIG. 1 depicts a Western blot for HIF-1, HIF-2, and β-actin in colonic crypts at the time points indicated after DMOG injection (8 mg.) Each lane represents a different animal.
# (§2) In order to assess the kinetic effects of DMOG on the HIF-1 and HIF-2 protein levels, male C57Bl/6 mice were injected with 8 mg. of DMOG intraperitoneally and colonic crypts were harvested at various time points after injection (FIG. 1). A 8 mg dose results in the elevation of HIF1 and HIF2 proteins 4-12 after DMOG administration as determined by Western blot analysis.
# intestinal stem cells = experiment: Microcolony analysis of colon crypt regeneration after 20 Gy abdominal irradiation; format: in vivo, mice
# Procedure: FIG. 2 is a graphical depiction of the crypts identified in transverse sections of colon stained with hematoxylin-eosin (H & E) after they were treated with saline or DMOG 16 hours before radiation, 4 hours before radiation, and then every 24 hours after receiving 20 Gy of abdominal radiation. The data represents the combined results from 8 mice receiving either DMOG or saline. Sixteen sections were analyzed per mouse. *p<0.006.
# FIG. 3 is a graphical depiction of the crypts identified in transverse sections of colon stained with H & E in mice irradiated before administration of DMOG. Mice were treated with saline or DMOG 2 hours after receiving 20 Gy of abdominal radiation and then once every 24 hours thereafter for 4.5 days. x-axis, left bar mice treated with saline, right bar mice treated with DMOG; y-axis regenerated crypts. *p<0.005.
# Radio- and chemotoxicity to the GI tract is the result of damage to the intestinal stem cell located within the crypts of Lieberkühn. The intestinal stem cell, defined by its expression of LGR5 is the most rapidly dividing cell in the GI tract and is therefore susceptible to genotoxic damage. […]
# [2] = Mortality, GI toxicity and gross intestinal morphology after DMOG injection; format: in vivo, male C57Bl/6 mice; details: 8 mg DMOG intraperitoneally, mice
# GI epithelia = experiment: FITC-dextran assay of the GI tract (epithelial integrity) after irradiation; format: in vivo, mice; details: 20 Gy; gavage 0.6 mg/kg FITC-dextran (4 kD); measured four hours later (FIG. 4)
# Procedure: FIG. 4 depicts the concentration of FITC-Dextran present in the serum of mice gavaged with 0.6 mg./kg. FITC-Dextran (4 kD) either with or without irradiation and with or without DMOG. Six mice were tested per experimental condition. *p<0.04
# Mortality from GI radiotoxicity results from compromised epithelial integrity manifesting as uncontrolled diarrhea or infections from enteric pathogens due to decreased barrier function. To test whether a PHD inhibitor would increase epithelial integrity after radiation insult, a FITC-dextran assay of the GI tract was performed. FITC-dextran cannot cross the GI epithelia, thus its presence in serum is an indication of compromised epithelial integrity. Following irradiation (20 Gy), mice underwent gavage, with the insertion of 0.6 mg/kg of FITC-dextran (4 kD). Four hours later, levels of FITC-dextran were measured in the blood. Treatment with DMOG results in a 3.5-fold decrease in the presence of FITC-dextran in the serum relative to saline control (FIG. 4).
# HIF-2 = experiment: Western blot for HIF-2 in colonic crypts after DMOG injection; format: in vivo, male C57Bl/6 mice; details: 8 mg DMOG intraperitoneally; 4-12 after DMOG administration
# Procedure: as §1, §2
structure (smiles),measurement,setting,value
"COC(=O)CNC(=O)C(=O)OC [DMOG, N-(methoxyoxoacetyl)-glycine methyl ester]",overall survival,[1],dramatically improved
same,HIF1 protein level in colonic crypts (Western blot),HIF-1,elevation
same,enrichment in regenerative capacity of colon relative to saline alone (regenerated crypts),"intestinal stem cells; 8 mg DMOG prior to 20 Gy whole-abdomen irradiation, then daily, sacrifice 4.5 days post irradiation (FIG. 2)",2 fold
same,enrichment in regenerative capacity of colon relative to saline alone (regenerated crypts),"intestinal stem cells; DMOG administered after 20 Gy whole-abdomen irradiation (2 hours after, then every 24 hours), 4.5 days (FIG. 3)",2 fold
same,gross morphological changes in the intestine,[2],nor was there obvious gross morphological changes in the intestine
same,mortality or GI toxicity,[2],no observed increase in mortality or GI toxicity
same,decrease in FITC-dextran in the serum relative to saline control,GI epithelia,3.5 fold
same,HIF2 protein level in colonic crypts (Western blot),HIF-2,elevation
